Experimental data from publication PMC7694092, “Antibacterial Cyclic Tripeptides from Antarctica-Sponge-Derived Fungus Aspergillus insulicola HDN151418” (Marine Drugs, 2020).
In brackets after ≈: the same amount, converted by molar mass. Like-named read-outs stand apart in the source and are kept apart here.

Tests used:
in vitro [1] = type: cell-based; conditions: human; NCI-H446 cells; read-out: cytotoxic activity IC50
Description: (§2) HeLa (human epithelial carcinoma cell line), HCT-116 (human colon cancer cell line), MCF-7 (human breast adenocarcinoma cell line), A549 (human lung adenocarcinoma cell line), SH-SY5Y (human neuroblastoma cell line), MDA-MB-231 (human breast cancer cell line), HO8910 (human ovarian carcinoma cell line), and MGC-803 (human stomach carcinoma cell line) were ordered from Shanghai Institute of Biochemistry and Cell Biology, Chinese Academy of Sciences (Shanghai, China). K562 (human leukaemia cell line), BEL-7402 (human hepatic carcinoma cell line), L-02 (human normal hepatic cell line), GES-1 (human gastric epithelial cell line), U87 (human primary glioblastoma cell line), ASPC-1 (human pancreatic cancer cell line), PC-3 (human prostate carcinoma cell line), and NCI-H446 (human small cell lung cancer cell line) were ordered from the American Type Culture Collection (ATCC, Gaithersburg, MD, USA).

in vitro [2] = type: cell-based; conditions: human; SH-SY5Y cells; read-out: cytotoxic activity IC50
in vitro [3] = type: cell-based; conditions: human; L-02 cells; read-out: cytotoxic activity IC50
Description: as §2

in vitro [4] = type: cell-based; conditions: human; ASPC-1 cells; read-out: cytotoxic activity IC50
in vitro [5] = type: cell-based; conditions: human; BEL-7402 cells; read-out: cytotoxic activity IC50
Description: as §2

MRCNS = test system: MRCNS
Experimental: (§1) The antimicrobial activities of 1–6 against Bacillus cereus, Proteus species, Mycobacterium phlei, Bacillus subtilis, Vibrio parahemolyticus, Edwardsiella tarda, MRCNS, and MRSA were evaluated as previously reported by using the agar dilution method. […] All strains were donated by the Qingdao municipal hospital.

MRSA = test system: MRSA
Experimental: as §1

Bacillus cereus = experiment: microbe, parasite or virus in culture
Experimental: as §1

Bacillus subtilis = experiment: microbe, parasite or virus in culture
Experimental: as §1

Edwardsiella tarda = experiment: microbe, parasite or virus in culture
Experimental: as §1

Mycobacterium phlei = experiment: microbe, parasite or virus in culture
Experimental: as §1

in vitro [6] = type: cell-based; conditions: human; HCT-116 cells; read-out: cytotoxic activity IC50
Description: as §2

in vitro [7] = type: cell-based; conditions: human; HO8910 cells; read-out: cytotoxic activity IC50
Description: as §2

in vitro [8] = type: cell-based; conditions: human; MCF-7 cells; read-out: cytotoxic activity IC50
Description: as §2

in vitro [9] = type: cell-based; conditions: human; Hela cells; read-out: cytotoxic activity IC50
Description: as §2

Proteus species = experiment: organism not typed
Experimental: as §1

in vitro [10] = conditions: human, GES-1 cells (gastric epithelial cell line)
in vitro [11] = type: cell-based; conditions: human; A549 cells; read-out: cytotoxic activity IC50
Description: as §2

in vitro [12] = type: cell-based; conditions: human; MGC-803 cells; read-out: cytotoxic activity IC50
Description: as §2

in vitro [13] = type: cell-based; conditions: human; U87 cells; read-out: cytotoxic activity IC50
in vitro [14] = type: cell-based; conditions: human; K562 cells; read-out: cytotoxic activity IC50
Description: as §2

in vitro [15] = type: cell-based; conditions: human; PC-3 cells; read-out: cytotoxic activity IC50
Vibrio parahemolyticus = experiment: Antimicrobial activity (MIC), agar dilution method; type: cell-based; conditions: performed in triplicates
Experimental: as §1

in vitro [16] = type: cell-based; conditions: human; MDA-MB-231 cells; read-out: cytotoxic activity IC50
Description: as §2

[17] = dissolved in solvent mixture MeOH-H2O and exposed to air for two weeks; LC-MS
Description: It is well-known that some artificial compounds are formed from natural compounds due to oxidation when exposed to air.

SMILES | IC50 (in vitro [1]) | IC50 (in vitro [2]) | IC50 (in vitro [3]) | IC50 (in vitro [4]) | IC50 (in vitro [5]) | MIC, MRCNS (MRCNS) | MIC, MRSA (MRSA) | MIC, B. cereus (Bacillus cereus) | MIC, B. subtilis (Bacillus subtilis) | MIC, E. tarda (Edwardsiella tarda) | MIC, M. phlei (Mycobacterium phlei) | IC50 (in vitro [6]) | IC50 (in vitro [7]) | IC50 (in vitro [8]) | IC50 (in vitro [9]) | MIC, P. species (Proteus species) | IC50 (in vitro [10]) | IC50 (in vitro [11]) | IC50 (in vitro [12]) | IC50 (in vitro [13]) | other results
CC(C)[C@H]1C(=O)N(C)[C@@H](C)C(=O)NCCC[C@H](NC(=O)/C=C/C=C/C(=O)O)C(=O)N1C [Compound 1] | > 30 µM | > 30 µM | > 30 µM | > 30 µM | > 30 µM | 12.5 µM (≈ 5.46 µg/mL) | 25.0 µM (≈ 10.9 µg/mL) | 3.13 µM (≈ 1.37 µg/mL) | 6.25 µM (≈ 2.73 µg/mL) | 1.56 µM (≈ 0.681 µg/mL) | 3.13 µM (≈ 1.37 µg/mL) | > 30 µM | > 30 µM | > 30 µM | > 30 µM | 3.13 µM (≈ 1.37 µg/mL) | > 30 µM | > 30 µM | > 30 µM | > 30 µM | IC50 (in vitro [14]): > 30 µM; IC50 (in vitro [15]): > 30 µM; MIC, V. parahemolyticus (Vibrio parahemolyticus): 3.13 µM (≈ 1.37 µg/mL); IC50 (in vitro [16]): > 30 µM
O=C(O)c1cn(C2CC2)c2cc(N3CCNCC3)c(F)cc2c1=O [CIP, Ciprofloxacin, reference compound] |  |  |  |  |  |  |  |  |  |  |  |  |  |  |  |  |  |  |  |  | MIC (Bacillus cereus; Bacillus cereus, read-out: MIC, B. cereus): 0.78 µM (≈ 0.258 µg/mL); MIC (Bacillus subtilis; Bacillus subtilis, read-out: MIC, B. subtilis): 0.195 µM (≈ 0.0646 µg/mL); MIC (Edwardsiella tarda; Edwardsiella tarda, read-out: MIC, E. tarda): 0.0125 µM (≈ 0.00414 µg/mL); MIC (Mycobacterium phlei; Mycolicibacterium phlei, read-out: MIC, M. phlei): 0.78 µM (≈ 0.258 µg/mL); MIC (Proteus species; read-out: MIC, P. species): 0.195 µM (≈ 0.0646 µg/mL)
CO[C@H](/C=C/C=C/C(=O)N[C@H]1CCCNC(=O)[C@H](C)N(C)C(=O)[C@H](C(C)C)N(C)C1=O)[C@@H](C)O [Compound 4, (2′E,4′E)-cyclo-[(NMe-L-Ala)-(NMe-L-Val)-(Nα-(6R,7R)-7-hydroxy-6-methoxyocta-2,4-dienoyl-L-Orn)]] | > 30 µM | > 30 µM | > 30 µM | > 30 µM | > 30 µM | >50.0 µM | >50.0 µM | 25.0 µM (≈ 12 µg/mL) | >50.0 µM | 25.0 µM (≈ 12 µg/mL) | >50.0 µM | > 30 µM | > 30 µM | > 30 µM | > 30 µM | 25.0 µM (≈ 12 µg/mL) | > 30 µM | > 30 µM | > 30 µM | > 30 µM | IC50 (in vitro [14]): > 30 µM; IC50 (in vitro [15]): > 30 µM; MIC, V. parahemolyticus (Vibrio parahemolyticus): 25.0 µM (≈ 12 µg/mL); IC50 (in vitro [16]): > 30 µM
CC(C)[C@H]1C(=O)N(C)[C@@H](C)C(=O)NCCC[C@H](NC(=O)/C=C/C=C/C=O)C(=O)N1C [Compound 5, sclerotiotide F] | > 30 µM | > 30 µM | > 30 µM | > 30 µM | > 30 µM | >50.0 µM | >50.0 µM | 25.0 µM (≈ 10.5 µg/mL) | >50.0 µM | 25.0 µM (≈ 10.5 µg/mL) | >50.0 µM | > 30 µM | > 30 µM | > 30 µM | > 30 µM | 25.0 µM (≈ 10.5 µg/mL) | > 30 µM | > 30 µM | > 30 µM | > 30 µM | IC50 (in vitro [14]): > 30 µM; IC50 (in vitro [15]): > 30 µM; MIC, V. parahemolyticus (Vibrio parahemolyticus): 25.0 µM (≈ 10.5 µg/mL); IC50 (in vitro [16]): > 30 µM
C/C=C/C=C/C=C/C(=O)N[C@H]1CCCNC(=O)[C@H](C)N(C)C(=O)[C@H](C(C)C)N(C)C1=O [Compound 6, sclerotiotide B] | > 30 µM | > 30 µM | > 30 µM | > 30 µM | > 30 µM | >50.0 µM | >50.0 µM | >50.0 µM | >50.0 µM | >50.0 µM | >50.0 µM | > 30 µM | > 30 µM | > 30 µM | > 30 µM | >50.0 µM | > 30 µM | > 30 µM | > 30 µM | > 30 µM | chemical stability (products formed) [17]: compounds 4 and 5 were also detected from the product; IC50 (in vitro [14]): > 30 µM; IC50 (in vitro [15]): > 30 µM; MIC, V. parahemolyticus (Vibrio parahemolyticus): >50.0 µM; IC50 (in vitro [16]): > 30 µM
COC(=O)/C=C/C=C/C(=O)N[C@H]1CCCNC(=O)[C@H](C)N(C)C(=O)[C@H](C(C)C)N(C)C1=O [Compound 2, (2′E,4′E)-cyclo-[(NMe-L-Ala)-(NMe-L-Val)-(Nα-6-methoxy-6-oxohexa-2,4-dienoyl-L-Orn)]] | > 30 µM | > 30 µM | > 30 µM | > 30 µM | > 30 µM | 25.0 µM (≈ 11.3 µg/mL) | 25.0 µM (≈ 11.3 µg/mL) | 6.25 µM (≈ 2.82 µg/mL) | 12.5 µM (≈ 5.63 µg/mL) | 1.56 µM (≈ 0.703 µg/mL) | 12.5 µM (≈ 5.63 µg/mL) | > 30 µM | > 30 µM | > 30 µM | > 30 µM | 6.25 µM (≈ 2.82 µg/mL) | > 30 µM | > 30 µM | > 30 µM | > 30 µM | IC50 (in vitro [14]): > 30 µM; IC50 (in vitro [15]): > 30 µM; MIC, V. parahemolyticus (Vibrio parahemolyticus): 6.25 µM (≈ 2.82 µg/mL); IC50 (in vitro [16]): > 30 µM
CO[C@H](C)[C@@H](/C=C/C=C/C(=O)N(C)[C@H]1CCCN(C)C(=O)[C@H](C)N(C)C(=O)[C@H](C(C)C)N(C)C1=O)OC [Compound 3] | > 30 µM | > 30 µM | > 30 µM | > 30 µM | > 30 µM | >50.0 µM | >50.0 µM | >50.0 µM | >50.0 µM | 25.0 µM (≈ 13.1 µg/mL) | >50.0 µM | > 30 µM | > 30 µM | > 30 µM | > 30 µM | >50.0 µM | > 30 µM | > 30 µM | > 30 µM | > 30 µM | IC50 (in vitro [14]): > 30 µM; IC50 (in vitro [15]): > 30 µM; MIC, V. parahemolyticus (Vibrio parahemolyticus): 25.0 µM (≈ 13.1 µg/mL); IC50 (in vitro [16]): > 30 µM
